Measurements from PubChem BioAssay AID1985 (Southern Research Specialized Biocontainment Screening …, 2009).
pIC50: −log10 of the molar value.

tested on: S. Typhi PhoP-promoter GFP reporter, fluorescence, 4 h; test: modified counter assay using GFP fluorescence, PhoP regulon inhibitor project, dose response (AID 1985)

Row | Structure (SMILES) | pIC50
1 | O=C(NC(C(=O)c1ccccc1)n1c(=O)cc[nH]c1=S)c1ccccc1 (stereo unspecified) | 3.92
2 | COC(=O)N/N=C/c1c[n+]([O-])c2ccccc2[n+]1[O-] | 4.00
3 | C#CCOCCOCCOCCNc1nc(N2CCN(C(=O)CCCCCCCCCCNC(=O)[C@H]([C@@H](C)CC)n3cc(CCCCN=C(N)N)nn3)CC2)nc(N2CCN(C(=O)CCCCCCCCCCNC(=O)[C@H](CCCCN)n3cc(C)nn3)CC2)n1 | 4.16
4 | OC(CN1CCCCC1)Cn1c2ccccc2c2cc(Br)ccc21 (stereo unspecified) | 4.09
5 | Cc1ccc2c(c1)N/C(=C(\C=C(/Cl)[N+](=O)[O-])[N+](=O)[O-])N2 | 4.09
6 | C=C1c2c(Cl)ccc(O)c2C(O)=C2C(=O)[C@]3(O)C(O)=C(C(N)=O)C(=O)[C@@H](N(C)C)[C@@H]3[C@@H](O)C12 (stereo partly specified) | 6.03
7 | O=[N+]([O-])c1cc(/C=N/Nc2nc3ccccc3[nH]2)c(O)cc1O | 4.61
8 | O=Cc1ccc(O)cc1O | 3.96
9 | Clc1ccc(OCCCN2CCCC2)cc1Cl | 4.32
10 | c1ccc(Nc2nc(NCC3CCCO3)c3ccccc3n2)cc1 (stereo unspecified) | 4.77
11 | O=[N+]([O-])/C=C/c1cc2ccccc2[nH]1 | 4.19
12 | O=C(/C=C/c1cc(Br)ccc1O)c1ccco1 | 4.17
13 | COc1ccc(/C=C/c2cc(-c3ccc(C)cc3)o[n+]2C)cc1 | 4.00
14 | CN1CCc2c(sc(NC(=O)c3ccc([N+](=O)[O-])o3)c2C(N)=O)C1 | 4.96
15 | CCCCCCCCCCCCCCCC[n+]1ccc(C(N)=O)cc1 | 4.81
16 | O=C(N/N=C/c1c(O)ccc2ccccc12)c1ccc(CO)nc1 | 4.10
17 | Cc1cccc(OCC(O)Cn2c(=N)n(CCN3CCCCC3)c3ccccc32)c1 (stereo unspecified) | 4.30
18 | O=C1CC(NC(=O)C(F)(F)F)=NN1c1ccccc1 | 3.85
19 | S=C(Nc1ccc(Cl)c(Cl)c1)NC1CCN(Cc2ccccc2)CC1 | 4.42
20 | COc1cccc(NC2=NC3(CCCCC3)N=C(N)N2)c1 | 3.83
21 | CN(C)c1ccc2nc3ccc(=[N+](C)C)cc-3sc2c1 | 4.64
22 | CC(=O)NC(c1cccs1)c1cc([N+](=O)[O-])c2cccnc2c1O (stereo unspecified) | 4.50
23 | COc1c(N2CCN(C(=S)NC3CC4CCC3C4)C(C)C2)c(F)cc2c(=O)c(C(=O)O)cn(C3CC3)c12 (stereo unspecified) | 5.95

Row | Structure (SMILES) | pIC50
24 | O=C(CN1C2=NCCCN2c2ccccc21)c1ccc(Br)s1 | 3.87
25 | Fc1ccc(Nc2nc(NCc3ccco3)c3ccccc3n2)cc1 | 4.82
26 | O=c1c2ccccc2[nH]c2ccccc12 | 4.57
27 | OCCN1CCN(C2Cc3cc(Cl)ccc3Sc3ccc(Cl)cc32)CC1 (stereo unspecified) (tested in a mixture with another compound) | 4.13
28 | Cc1cc(=O)[nH]c(-n2nc(C)cc2C)n1 | 4.17
29 | Cc1cccc2c1Sc1ccc(Cl)cc1CC2N1CCNCC1 (stereo unspecified) | 4.49
30 | Cc1cccc(Nc2nc(NCc3ccco3)c3ccccc3n2)c1 | 4.96
31 | CCN1CCN(C(=O)c2cc3cc(F)ccc3[nH]2)CC1 | 4.01
32 | CCn1cc(C(=O)O)c(=O)c2ccc(C)nc21 | 4.12
33 | CC1=NN(c2nc3ccccc3[nH]2)C(=O)C1Cc1ccccc1 (stereo unspecified) | 4.44
34 | Oc1ccc(CN2CCCc3ccccc32)c2cccnc12 | 4.44
35 | Nc1ncncc1-c1ccc(Cl)cc1 | 3.88
36 | CCn1cc(C(=O)O)c(=O)c2cc(F)c(N3CCN(C(=S)NC(=O)c4ccc(Br)cc4)CC3)cc21 | 4.51
37 | OC1CCCN(Cc2ccc3ccc4cccc5ccc2c3c45)C1 (stereo unspecified) | 3.93
38 | O=C(CNC(=O)c1ccccc1)N/N=C/c1ccc([N+](=O)[O-])s1 | 4.71
39 | CCn1cc(C(=O)O)c(=O)c2cc(F)c(N3CCN(C(=S)NC(=O)c4cc(OC)cc(OC)c4)CC3)cc21 | 5.51
40 | N#Cc1c(-c2ccccc2)ccn(Cc2cccc(Cl)c2)c1=O | 4.67
41 | CCOc1ccc(Nc2nc(N)c3ccccc3n2)cc1 | 4.35
42 | Nc1nc(N)c(Cc2ccc(Cl)cc2Cl)c(N)n1 | 3.99
43 | Cc1ccc(NC(=O)CS(=O)CC(=O)Nc2ccccc2-c2ccc(C)o2)cc1 (stereo unspecified) | 4.18
44 | c1ccc(-c2nc3ccccc3[nH]2)cc1 | 4.13
45 | COc1ccc(/C=N/Nc2cc(C)nc3ccc(Br)cc23)cc1 | 4.33
46 | Cc1cc([N+](=O)[O-])cc(/C=N/n2c(C)nc3ccccc3c2=O)c1O | 4.27

Row | Structure (SMILES) | pIC50
47 | CCCCOc1ccc(NC2=NC3(CCCC3)N=C(N)N2)cc1 | 4.14
48 | COc1cccc2c(=O)c(C(=O)O)c[nH]c12 | 3.98
49 | Oc1c(I)cc(Cl)c2cccnc12 | 5.09
50 | COc1ccc(CNCC(O)COc2ccc(C(C)(C)c3ccccc3)cc2)cc1 (stereo unspecified) | 4.43
51 | CNC[C@H](Cc1ccccc1)NC[C@@H](Cc1cccc2ccccc12)NCCc1ccc(C)cc1 | 4.71
52 | O=[N+]([O-])c1cc(F)c2cccnc2c1O | 5.32
53 | Nc1ncncc1-c1ccc([N+](=O)[O-])cc1 | 4.17
54 | CCn1cc(C(=O)O)c(=O)c2cc(F)c(N3CCN(C(=O)Nc4ccccc4)CC3)cc21 | 4.68
55 | Cn1ncnc2c(=O)n(C)c(=O)nc1-2 | 6.13
56 | Fc1ccc(Nc2ccnc(Nc3ccc(F)cc3)n2)cc1 | 4.41
57 | CC(C(=O)NC1CCS(=O)(=O)C1)N1C(=O)/C(=C/c2ccc(Cl)cc2)SC1=S (stereo unspecified) | 4.74
58 | COc1ccc(Cl)cc1S(=O)(=O)N1CCN(C(=O)c2ccco2)CC1 | 3.84
59 | Cc1ccc(OCC(=O)N/N=C\c2c(C)[nH]n(-c3ccccc3)c2=O)c([N+](=O)[O-])c1 | 4.27
60 | COc1c(N2CCNC(C)C2)c(F)cc2c(=O)c(C(=O)O)cn(C3CC3)c12 (stereo unspecified) | > 6.64
61 | CC(C)[C@@H]1CC[C@@H](C)C[C@H]1OC(=O)C[n+]1cc(-c2ccc(Cl)cc2)n2c1CCCCC2 | 3.85
62 | Clc1ccc(C(c2ccccc2)N2CCNCC2)cc1 (stereo unspecified) | 3.84
63 | CCNC(=O)Oc1ccc[nH]c1=O | 4.00
64 | Cc1cc(NS(=O)(=O)c2ccc(NC(=O)Nc3cccc(Cl)c3)cc2)no1 | 3.86
65 | O=[N+]([O-])c1cc(CN2CCN(c3cccc(C(F)(F)F)c3)CC2)c2cccnc2c1O | 4.46
66 | OCCN1CCN(C2CCC(c3ccc(F)cc3)c3ccc(F)cc32)CC1 (stereo unspecified) | 4.17
67 | O=C(Nc1nnc(C(F)(F)F)s1)c1ccc(Br)s1 | 4.18
68 | C#CCOCCOCCOCCNc1nc(N2CCN(C(=O)CCCCCCCCCCNC(=O)Cn3cc(CCCCCN)nn3)CC2)nc(N2CCN(C(=O)CCCCCCCCCCNC(=O)[C@H]([C@@H](C)CC)n3cc(CCCCCN)nn3)CC2)n1 | 4.15
69 | c1ccc2oc(-c3csc(NCC4CCCO4)n3)cc2c1 (stereo unspecified) | 3.85

Row | Structure (SMILES) | pIC50
70 | CSc1nc2ccc(Cl)cc2[nH]1 | 4.30
71 | O=[N+]([O-])c1cc([N+](=O)[O-])c2cccnc2c1Oc1ccccc1O | 4.06
72 | Cc1c2ccncc2c(C)c2c1[nH]c1ccccc12 | 4.48
73 | O=[N+]([O-])c1cc(O)c2ncccc2c1 | 4.92
74 | CC(C)CCC(CCNCc1ccccn1)c1ccc(Cl)cc1 (stereo unspecified) | 4.10
75 | O=C(CCC(=O)Nc1ccc(Cl)cc1Cl)N/N=C/c1ccc([N+](=O)[O-])o1 | 4.47
76 | CCn1cc(C(=O)O)c(=O)c2cc(F)c(N3CCNCC3)cc21 | > 6.64
77 | CN(CC(=O)Nc1ccc(F)c(F)c1F)c1cnccn1 | 3.96
78 | CCn1cc(C(=O)NCC(C)C)c(=O)c2cc(F)c(N3CCN(C)CC3)cc21 | 4.51
79 | CN(C)CCCNc1cc(C(C)(C)C)nc2c(-c3ccc(Cl)cc3)cnn12 | 4.46
80 | O=C(Nc1nc(-c2ccccn2)cs1)c1ccc(Cl)s1 | 4.67
81 | C[C@H]1c2cccc(O)c2C(O)=C2C(=O)C3(O)C(O)=C(C(N)=O)C(=O)[C@@H](N(C)C)[C@@H]3[C@@H](O)[C@@H]21 (stereo partly specified) | 5.72
82 | O=C(N/N=C/c1ccc([N+](=O)[O-])s1)c1cccnc1 | 4.64
83 | O=C(N/N=C\c1ccc(Cl)s1)c1cccs1 | 4.48
84 | Fc1ccc([C@@H]2CCNC[C@H]2COc2ccc3c(c2)OCO3)cc1 | 4.11
85 | CN1CCN(C2Cc3cc(F)ccc3Sc3ccc(Cl)cc32)CC1 (stereo unspecified) | 4.13
86 | CNCc1c(OCc2ccccc2F)ccc2ccccc12 | 3.90
87 | CCC(C)(C)c1ccc(OCCCC[n+]2ccccc2)c(C(C)(C)CC)c1 | 4.17
88 | CN1C(=O)NC(c2ccc(O)cc2)C(C(=O)c2cccs2)C1(O)C(F)(F)F (stereo unspecified) | 4.70
89 | O=C(Cn1nc(CNc2ccc(Cl)cc2)[n+]2c1CCCCC2)c1ccc(Br)cc1 | 4.11
90 | Clc1cc(Br)ccc1OCCCNCc1ccccc1 | 4.34
91 | OCCNc1nc(Nc2ccc(Br)cc2)nc2ccccc12 | 4.72
92 | OCCCCNCc1ccc(OCc2ccc(Cl)cc2Cl)cc1 | 3.88

Row | Structure (SMILES) | pIC50
93 | Cc1ccc(C(=O)N/C(=C\c2ccc(-c3ccc(Br)cc3)o2)C(=O)NCCCN(C)C)cc1 | 4.18
94 | Cc1cccc(NC2=NC3(CCCCC3)N=C(N)N2)c1 | 4.05
95 | Cc1ccc(-c2c[n+](Cc3ccc(Cl)cc3)c3n2CCC3)cc1 | 4.04
96 | CC(=O)Nc1ccc(S(=O)(=O)NNc2cccc(C)c2)cc1 | 4.23
97 | CCCCCCCCCCOC(=O)Cn1c(COc2ccccc2C)[n+](C)c2ccccc21 | 4.67
98 | C#CCOCCOCCOCCNc1nc(N2CCN(C(=O)CCCCCCCCCCNC(=O)[C@H]([C@@H](C)CC)n3cc(CCCCN=C(N)N)nn3)CC2)nc(N2CCN(C(=O)CCCCCCCCCCNC(=O)[C@H](CO)n3cc(CCCCCN)nn3)CC2)n1 | 4.48
99 | CC(Nc1nc(N2CCCC2)nc2ccccc12)c1ccccc1 (stereo unspecified) | 3.83
100 | O=C(CCNC(=O)c1ccco1)Nc1ccc(SC(F)F)cc1 | 4.13
101 | O=C(NNc1nc2ccc(F)cc2s1)c1cccc(F)c1 | 3.83
102 | Clc1ccc(C(c2ccc(Cl)cc2)n2cc[n+](CC(OCc3ccc(Cl)cc3Cl)c3ccc(Cl)cc3Cl)c2)cc1 (stereo unspecified) | 4.82
103 | COc1cccc(Nc2nc(NCCO)c3ccccc3n2)c1 | 4.07
104 | C1=C(CCNc2ncnc3c2[nH]c2ccccc23)CCCC1 | 3.94
105 | Cc1nnc(N/N=C/c2ccccn2)[nH]c1=O | 4.51
106 | C[C@H]1c2cccc(O)c2C(O)=C2C(=O)[C@]3(O)C(O)=C(C(N)=O)C(=O)[C@@H](N(C)C)C3[C@@H](O)C21 (stereo partly specified) | 5.93
107 | Fc1ccccc1CCNCc1ccccc1 | 4.34
108 | O=C(N/N=C/c1cc(Br)cc(Br)c1O)c1ccncc1 | 4.46
109 | C[C@H]1c2cccc(O)c2C(O)=C2C(=O)[C@]3(O)C(O)=C(C(N)=O)C(=O)[C@@H](N(C)C)[C@@H]3[C@@H](O)[C@@H]21 | 5.71
110 | O=C(C[n+]1cnn(CC(=O)c2ccc(Cl)cc2Cl)c1)c1ccc([N+](=O)[O-])cc1 | 4.37
111 | CCN(CC)c1ccc(/C=N/NC(=O)c2ccc3nc[nH]c3c2)c(O)c1 | 4.33
